Measurements as given in article PMC11953442, “PIP2-mediated oligomerization of the endosomal sodium/proton exchanger NHE9” (Nature Communications, 2025).
Blank lines part the entries; values can stand above or below the molecule they belong to.

Assays:
NHE9* = target: T1, NHE9* (Equus caballus, UniProt F7B113); assay: GFP-based thermal shift assay; format: binding; conditions: 0.1 mg/ml lipid; DDM, CHS, octyl glucoside; NHE9*-GFP fusion
T1 construct: gene SLC9A9; residues 8-575 of 644, C-terminally truncated; TEV-GFP-TwinStrep-His8 from S. cerevisiae FGY217; GFP kept for thermal shift, cut for cryo-EM; homodimer
T1 sequence (F7B113 8-575): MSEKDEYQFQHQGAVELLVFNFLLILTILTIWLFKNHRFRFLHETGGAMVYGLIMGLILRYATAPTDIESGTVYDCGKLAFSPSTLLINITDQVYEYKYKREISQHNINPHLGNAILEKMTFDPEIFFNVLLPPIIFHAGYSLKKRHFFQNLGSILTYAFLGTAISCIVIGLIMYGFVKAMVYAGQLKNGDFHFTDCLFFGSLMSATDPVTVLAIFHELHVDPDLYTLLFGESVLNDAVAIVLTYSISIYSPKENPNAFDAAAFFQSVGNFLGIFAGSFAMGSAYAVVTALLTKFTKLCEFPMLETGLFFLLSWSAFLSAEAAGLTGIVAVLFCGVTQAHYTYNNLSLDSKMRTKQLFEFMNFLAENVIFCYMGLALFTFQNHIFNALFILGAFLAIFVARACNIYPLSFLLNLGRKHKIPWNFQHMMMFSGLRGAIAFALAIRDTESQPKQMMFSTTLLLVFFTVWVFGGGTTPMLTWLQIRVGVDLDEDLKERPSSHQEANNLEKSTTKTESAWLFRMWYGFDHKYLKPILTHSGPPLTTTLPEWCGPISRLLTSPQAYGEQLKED

EcNhaA-mut2 = target: T2, EcNhaA-mut2 (Escherichia coli, UniProt P13738, A109T/Q277G/L296M); assay: cryo-EM structure; format: binding; conditions: pH 7.5; DDM; 3 mM cardiolipin added; three lipids at dimer interface; 3.3 A
T2 construct: gene nhaA; from E. coli Lemo21(DE3); homodimer

[1] = target: T3, E. coli NhaA WT-like triple mutant (A109T, Q277G, L296M) (E. coli), P13738; assay: cryo-EM structure; NhaA triple-mutant-GFP fusion in DDM with 3 mM cardiolipin (18:1) added, 20 mM Tris-HCl pH 7.5, 150 mM NaCl, 0.03% DDM; three cardiolipins modelled at the dimer interface; conditions: remark: other sources report otherwise
T3 chain: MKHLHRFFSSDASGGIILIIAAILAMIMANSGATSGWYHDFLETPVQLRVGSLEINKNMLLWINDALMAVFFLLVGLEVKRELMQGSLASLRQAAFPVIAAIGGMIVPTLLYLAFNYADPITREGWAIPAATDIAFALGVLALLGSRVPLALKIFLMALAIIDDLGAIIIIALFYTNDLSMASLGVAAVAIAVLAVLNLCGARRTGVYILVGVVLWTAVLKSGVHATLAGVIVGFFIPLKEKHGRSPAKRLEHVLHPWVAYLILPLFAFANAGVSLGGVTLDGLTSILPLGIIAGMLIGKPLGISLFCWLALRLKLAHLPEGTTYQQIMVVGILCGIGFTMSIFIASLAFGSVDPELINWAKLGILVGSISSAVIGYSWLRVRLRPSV

[2] = target: the molecule itself; assay: cryo-EM structure; NHE9* at pH 6.5, 20 mM Mes-Tris, 150 mM NaCl, 0.003% LMNG, 0.0006% CHS; C2 symmetry; AlphaFold2 multimer model refined into a composite map
[3] = target: the molecule itself; assay: cryo-EM structure; NHE9*CC purified with bovine brain lipid extract, 20 mM Tris-HCl pH 8, 150 mM NaCl, 0.003% LMNG, 0.0006% CHS; C2 symmetry; two PI(3,5)P2 modelled at the dimer interface

Molecule: CCCCCCCC/C=C\CCCCCCCC(=O)OC[C@H](COP(=O)(O)OCC(O)COP(=O)(O)OC[C@@H](COC(=O)CCCCCCC/C=C\CCCCCCCC)OC(=O)CCCCCCC/C=C\CCCCCCCC)OC(=O)CCCCCCC/C=C\CCCCCCCC (stereo partly drawn) [cardiolipin (18:1)]
cryo-EM structure (EcNhaA-mut2): map density supported the modelling of cardiolipin at the dimerization interface

B1: E. coli NhaA WT-like triple mutant (A109T, Q277G, L296M), P13738 1-388 (natural protein)
chain: MKHLHRFFSSDASGGIILIIAAILAMIMANSGATSGWYHDFLETPVQLRVGSLEINKNMLLWINDALMAVFFLLVGLEVKRELMQGSLASLRQAAFPVIAAIGGMIVPTLLYLAFNYADPITREGWAIPAATDIAFALGVLALLGSRVPLALKIFLMALAIIDDLGAIIIIALFYTNDLSMASLGVAAVAIAVLAVLNLCGARRTGVYILVGVVLWTAVLKSGVHATLAGVIVGFFIPLKEKHGRSPAKRLEHVLHPWVAYLILPLFAFANAGVSLGGVTLDGLTSILPLGIIAGMLIGKPLGISLFCWLALRLKLAHLPEGTTYQQIMVVGILCGIGFTMSIFIASLAFGSVDPELINWAKLGILVGSISSAVIGYSWLRVRLRPSV
stoichiometry N [1]: 2

B2: E. caballus NHE9* (residues 8 to 575), tag removed (domain or fragment, Equus caballus, UniProt F7B113 8-575, looked up)
chain: MSEKDEYQFQHQGAVELLVFNFLLILTILTIWLFKNHRFRFLHETGGAMVYGLIMGLILRYATAPTDIESGTVYDCGKLAFSPSTLLINITDQVYEYKYKREISQHNINPHLGNAILEKMTFDPEIFFNVLLPPIIFHAGYSLKKRHFFQNLGSILTYAFLGTAISCIVIGLIMYGFVKAMVYAGQLKNGDFHFTDCLFFGSLMSATDPVTVLAIFHELHVDPDLYTLLFGESVLNDAVAIVLTYSISIYSPKENPNAFDAAAFFQSVGNFLGIFAGSFAMGSAYAVVTALLTKFTKLCEFPMLETGLFFLLSWSAFLSAEAAGLTGIVAVLFCGVTQAHYTYNNLSLDSKMRTKQLFEFMNFLAENVIFCYMGLALFTFQNHIFNALFILGAFLAIFVARACNIYPLSFLLNLGRKHKIPWNFQHMMMFSGLRGAIAFALAIRDTESQPKQMMFSTTLLLVFFTVWVFGGGTTPMLTWLQIRVGVDLDEDLKERPSSHQEANNLEKSTTKTESAWLFRMWYGFDHKYLKPILTHSGPPLTTTLPEWCGPISRLLTSPQAYGEQLKED
notes: Endosomal Na+/H+ exchanger NHE9 (SLC9A9), Equus caballus, partially truncated on the C-terminal tail, residues 8 to 575 out of a total of 644; also called SLC9A9; not shown: GFP, C-terminal, cleaved; TwinStrep, C-terminal, cleaved; His8, C-terminal, cleaved
stoichiometry N [2]: 2

B3: E. caballus NHE9*CC (NHE9* L139C-I444C double mutant) (domain or fragment, Equus caballus, UniProt F7B113 8-575, looked up)
chain: MSEKDEYQFQHQGAVELLVFNFLLILTILTIWLFKNHRFRFLHETGGAMVYGLIMGLILRYATAPTDIESGTVYDCGKLAFSPSTLLINITDQVYEYKYKREISQHNINPHLGNAILEKMTFDPEIFFNVLCPPIIFHAGYSLKKRHFFQNLGSILTYAFLGTAISCIVIGLIMYGFVKAMVYAGQLKNGDFHFTDCLFFGSLMSATDPVTVLAIFHELHVDPDLYTLLFGESVLNDAVAIVLTYSISIYSPKENPNAFDAAAFFQSVGNFLGIFAGSFAMGSAYAVVTALLTKFTKLCEFPMLETGLFFLLSWSAFLSAEAAGLTGIVAVLFCGVTQAHYTYNNLSLDSKMRTKQLFEFMNFLAENVIFCYMGLALFTFQNHIFNALFILGAFLAIFVARACNIYPLSFLLNLGRKHKIPWNFQHMMMFSGLRGACAFALAIRDTESQPKQMMFSTTLLLVFFTVWVFGGGTTPMLTWLQIRVGVDLDEDLKERPSSHQEANNLEKSTTKTESAWLFRMWYGFDHKYLKPILTHSGPPLTTTLPEWCGPISRLLTSPQAYGEQLKED
notes: Endosomal Na+/H+ exchanger NHE9 (SLC9A9), Equus caballus, residues 8 to 575 out of a total of 644, with L139C and I444C; also called cysteine variant; not shown: GFP, C-terminal, cleaved; TwinStrep, C-terminal, cleaved; His8, C-terminal, cleaved
stoichiometry N [3]: 2

Results, then the molecule that gave them:

dTm (NHE9*): 15 °C
Molecule: CCCCCCCCCCCCCCCC(=O)OC[C@H](COP(=O)(O)O[C@@H]1[C@H](O)[C@H](OP(=O)(O)O)[C@@H](O)[C@H](OP(=O)(O)O)[C@H]1O)OC(=O)CCCCCCCCCCCCCCC [PI(3,5)P2 dipalmitoyl]

dTm (NHE9*): 8 °C
Molecule: CCCCCCCC(=O)OC[C@H](COP(=O)(O)O[C@@H]1[C@H](O)[C@H](O)[C@@H](OP(=O)(O)O)[C@H](OP(=O)(O)O)[C@H]1O)OC(=O)CCCCCCC [PI(4,5)P2 dioctanoyl]
